For one data set, the target named is T1, Xyl3A (Mycothermus thermophilus, UniProt A0A0C5AKM5).
T1 construct: mature Xyl3A, signal peptide (residues 1-19) removed; precursor 777 residues; pPIC9 alpha-factor fusion, secreted from Pichia pastoris GS115
T1 sequence (A0A0C5AKM5 20-777): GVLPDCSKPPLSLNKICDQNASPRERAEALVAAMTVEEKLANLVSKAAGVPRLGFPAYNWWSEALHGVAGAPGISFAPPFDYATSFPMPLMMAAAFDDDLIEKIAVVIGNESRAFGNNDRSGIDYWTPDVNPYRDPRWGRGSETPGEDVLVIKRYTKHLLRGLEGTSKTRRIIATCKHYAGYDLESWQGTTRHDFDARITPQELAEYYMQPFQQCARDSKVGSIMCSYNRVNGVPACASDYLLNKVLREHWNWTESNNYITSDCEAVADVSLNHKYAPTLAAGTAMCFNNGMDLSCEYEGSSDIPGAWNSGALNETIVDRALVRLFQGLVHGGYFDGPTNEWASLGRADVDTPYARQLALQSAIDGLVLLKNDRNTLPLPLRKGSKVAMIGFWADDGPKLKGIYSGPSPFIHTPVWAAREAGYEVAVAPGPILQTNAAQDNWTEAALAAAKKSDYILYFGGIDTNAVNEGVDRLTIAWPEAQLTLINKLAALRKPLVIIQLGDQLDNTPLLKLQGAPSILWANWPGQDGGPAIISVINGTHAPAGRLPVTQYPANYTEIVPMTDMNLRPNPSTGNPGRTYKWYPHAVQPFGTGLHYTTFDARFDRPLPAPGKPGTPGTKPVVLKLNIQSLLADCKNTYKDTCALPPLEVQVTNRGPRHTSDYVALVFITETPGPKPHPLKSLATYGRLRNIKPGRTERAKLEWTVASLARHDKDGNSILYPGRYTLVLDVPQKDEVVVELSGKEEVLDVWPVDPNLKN
Nature of the data set: pNPX hydrolysis at […] nm, Dixon plot. The class given is biochemical. The settings on record: pNPX 0.75 and 1 mM, xylose 5-50 mM, pH 6.0, 60°C; competitive (general statement for β-xylosidases); Methods define Ki as xylose giving 50% inhibition.

Substrate in the data set “purified protein”: O=[N+]([O-])c1ccc(O[C@@H]2OC[C@@H](O)[C@H](O)[C@H]2O)cc1
Nature of the data set: purified protein. Type of data set: biochemical, Mycothermus thermophilus. The settings on record: pNPX 1-10 mM, 100 mM Na2HPO4-citric acid, pH 6.0, 60°C, 5 min.

These results are taken from publication PMC4320052, “High Level Expression of a Novel Family 3 Neutral β-Xylosidase from Humicola insolens Y1 with High Tolerance to D-Xylose” (PLoS ONE, 2015).

One may read the Ki as the equilibrium dissociation constant of an inhibitor or competing ligand from its target. Read a high Ki as weaker binding. With `OC1OC[C@@H](O)[C@H](O)[C@H]1O` (some centres unmarked) [xylose], the affinity at Xyl3A, expressed as Ki, was 29 mM.

B1: Xyl3A (Mycothermus thermophilus) (protein)
chain: GVLPDCSKPPLSLNKICDQNASPRERAEALVAAMTVEEKLANLVSKAAGVPRLGFPAYNWWSEALHGVAGAPGISFAPPFDYATSFPMPLMMAAAFDDDLIEKIAVVIGNESRAFGNNDRSGIDYWTPDVNPYRDPRWGRGSETPGEDVLVIKRYTKHLLRGLEGTSKTRRIIATCKHYAGYDLESWQGTTRHDFDARITPQELAEYYMQPFQQCARDSKVGSIMCSYNRVNGVPACASDYLLNKVLREHWNWTESNNYITSDCEAVADVSLNHKYAPTLAAGTAMCFNNGMDLSCEYEGSSDIPGAWNSGALNETIVDRALVRLFQGLVHGGYFDGPTNEWASLGRADVDTPYARQLALQSAIDGLVLLKNDRNTLPLPLRKGSKVAMIGFWADDGPKLKGIYSGPSPFIHTPVWAAREAGYEVAVAPGPILQTNAAQDNWTEAALAAAKKSDYILYFGGIDTNAVNEGVDRLTIAWPEAQLTLINKLAALRKPLVIIQLGDQLDNTPLLKLQGAPSILWANWPGQDGGPAIISVINGTHAPAGRLPVTQYPANYTEIVPMTDMNLRPNPSTGNPGRTYKWYPHAVQPFGTGLHYTTFDARFDRPLPAPGKPGTPGTKPVVLKLNIQSLLADCKNTYKDTCALPPLEVQVTNRGPRHTSDYVALVFITETPGPKPHPLKSLATYGRLRNIKPGRTERAKLEWTVASLARHDKDGNSILYPGRYTLVLDVPQKDEVVVELSGKEEVLDVWPVDPNLKN
notes: mature Xyl3A, signal peptide (residues 1-19) removed; precursor 777 residues; pPIC9 alpha-factor fusion, secreted from Pichia pastoris GS115
One may read the Km as the concentration of substrate that gives half-maximal velocity. As to B1, the Michaelis-Menten constant (Km) in the data set “purified protein” was 2510 µM.
